Reference: PubChem BioAssay AID2305 (GlaxoSmithKline (GSK), 2010)

tested on: P. falciparum 3D7 growth, pLDH absorbance; assay: P. falciparum 3D7 growth inhibition, dose response, strain 3D7 (AID 2305)

Structure (SMILES) | IC50 [nM]
CCN(CC)CCN(Cc1ccc(-c2ccc(C(F)(F)F)cc2)cc1)C(=O)Cn1c(CCc2ccc(F)c(C#N)c2)nc(=O)c2ccccc21 | 770
COc1ccc(OCCCN2CCN(CC(c3ccc(F)cc3)N3CCN(C(C)C)CC3)CC2)c2ccccc12 (stereo unspecified) | 650
COCCN(C(=O)Cc1cccs1)C(C(=O)NCc1ccc(OC)cc1)c1ccc(C(C)C)cc1 (stereo unspecified) | 840
COc1ccc(CNCc2ccc(-c3cccc(-c4nc5ccc(C(F)(F)F)cc5[nH]4)c3)cc2)cc1 | 150
Cc1cc(C(=O)NC2CCN(Cc3ccccc3)CC2)ccc1-c1nc2ccc(C(F)(F)F)cc2[nH]1 | 890
FC(F)(F)c1ccc(CNCC2CCN(Cc3ccc4c(c3)OCO4)CC2)cc1 | 1360
Cc1cc(NC(=O)NCCN2CCC(NC(=O)c3ccc(F)cc3)CC2)c2ccccc2n1 | 330
O=C(NCCCCN1CCC(O)(c2ccc3c(c2)OCO3)CC1)c1ccc(NC(=O)c2ccc(Cl)cc2)cc1 | 1180
Cc1cc(NCCC(=O)NCc2cccc(F)c2)nc(NCCc2ccc(F)cc2)n1 | 1750
Cc1cnc(NCCc2ccc(F)cc2)nc1NCCC(=O)Nc1ccccc1 | 950
COc1cc(Cc2cnc(N)nc2N)cc(OCCCCCCC(=O)O)c1OC | 940
Oc1ccc(Cl)cc1Nc1nc(C(F)(F)F)nc2ccccc12 | 940
O=C(NOCCOc1ccccc1)c1ccccc1 | 320
CCCNCc1ccc(-c2ccc(CN(CCOC)C(=O)c3ccccc3)cc2)nc1 | 880
COc1cc(Cl)c(C)cc1N(Cc1ccccc1-c1ccccc1)S(=O)(=O)c1ccc(C(F)(F)F)cc1 | 1050
CC(C)c1ccc(NC(=O)c2cccc(CN3CCCN(Cc4cccc(C#N)c4)CC3)c2)cc1 | 950
O=C(Nc1ccsc1)Nc1cccc(-c2cccc(-c3nc4ccc(C(F)(F)F)cc4[nH]3)c2)c1 | 150
CCOC(=O)c1ccc(N2CCCCC2)c(NC(=O)C(Cl)(Cl)Cl)c1 | 850
COC1CCC(C(=O)Nc2ccc(-c3cccc(-c4nc5c(C)cccc5[nH]4)c3)cc2)CC1 (stereo unspecified) | 580
O=C(Nc1cccc(CN2CCN(Cc3cccc(O)c3)CC2)c1)c1cc2ccccc2s1 | 1120
CCN(CCCN1CCCCC1)c1cc(C)nc(Nc2cc(Br)ccc2C)n1 | 410
COc1cc2c(cc1N1C[C@@H](C)N[C@@H](C)C1)N(C(=O)c1ccc(-c3ccc(-c4ncc[nH]4)cc3C)cc1)CC2 | 720
N#Cc1ccccc1Sc1ccccc1C(=O)Nc1ccc2ccccc2n1 | 510
CN1CCCN(Cc2ccc(-c3ccc(NC(=O)c4cccc(C#N)c4)cc3)cc2)CC1 | 880

Structure (SMILES) | IC50 [nM]
O=C(NC1CCN(CCN2CCc3ccccc3CC2)CC1)c1ccc(-c2ccc(C(F)(F)F)cc2)cc1 | 930
O=C(NCCN1CCCCC1)c1ccc(CNC(=O)c2ccc(O)c(-c3ccc(Cl)c(Cl)c3)c2)cc1 | 900
CC1CCN(CC[C@H]2CCCN2S(=O)(=O)c2cccc(NC(=O)c3cc4ccccc4s3)c2)CC1 | 830
COc1cc2ncnc(Nc3ccc(OCc4ccccc4Br)c(Cl)c3)c2cc1OC | 1280
COc1ccc(CC(=O)Nc2ccc(Nc3nc(C)cc(N(C)C)n3)cc2)cc1 | 790
Cc1cccc2[nH]c(-c3ccc(-c4ccc(CNCC5CCCO5)cc4)s3)nc12 (stereo unspecified) | 740
O=C(Nc1cccc(C(F)(F)F)c1)Nc1ccc(F)c([N+](=O)[O-])c1 | 700
CCSc1nnc(C2CCCN(CC(=O)Nc3cc(C(F)(F)F)ccc3Cl)C2)n1CC (stereo unspecified) | 230
CS(=O)(=O)c1ccc(CNCc2cccc(-c3cccc(-c4nc5ccc(F)cc5[nH]4)c3)c2)cc1 | 560
CN(CC1CCC(NC(=O)/C=C/c2ccc(Cl)c(Cl)c2)CC1)C1CCC(c2c[nH]c3ccccc23)CC1 (stereo unspecified) | 840
O=C(N[C@@H](CC1CCCCC1)C(=O)NC1CC1)c1ccc(O)c(-c2cccc(C(F)(F)F)c2)c1 | 770
Nc1cccc(CNCc2cccc(-c3ccc(-c4nc5ccccc5[nH]4)s3)c2)c1 | 600
COc1ccc(-c2cnc(N)nc2N)cc1Cl | 1400
CCCNC(=O)CN1CN(c2ccccc2)C2(CCN(C(=O)c3ccc(C(C)(C)C)cc3)CC2)C1=O | 470
CCN(CC)c1nc(N)c2c(N)nc3c(c2c1C#N)C(=O)CN3Cc1ccccc1 | 70
CC(C)(C)c1ccc(S(=O)(=O)Nc2ccccc2Cn2nc(N3CCNCC3)ccc2=O)cc1 | 850
O=C(CCCCCc1ccccc1)NC1CCC(CN2CCC(c3c[nH]c4ccccc34)CC2)CC1 (stereo unspecified) | 1140
COc1ccc(CNCc2ccc(-c3ccc(-c4nc5ccc(C(F)(F)F)cc5[nH]4)s3)cc2)cc1 | 170
COCCNCc1cccc(-c2ccc3c(Nc4ccc(F)cc4Cl)ccnc3c2)c1 | 680
CN1CCC(C(=O)Nc2cccc(-c3ccc(-c4nc5ccc(C(F)(F)F)cc5[nH]4)cc3)c2)CC1 | 680
CN1CCCCC1CCc1cc(C(=O)Nc2ccc(-c3ccc(O)cc3)cc2)ccc1O (stereo unspecified) | 1110
Cc1cccc2[nH]c(-c3ccc(-c4ccc(CNCc5cnn(-c6ccccc6)n5)cc4)cc3)nc12 | 430
C[C@@H](Oc1cc(-n2cnc3ccc(NC(=O)NC(C)(C)C)cc32)sc1C(N)=O)c1ccccc1Cl | 330
CCOC(=O)C1=C(C)NC2=C(C(=O)CC(C)(C)C2)C1c1ccc(Cl)cc1 (stereo unspecified) | 920

Structure (SMILES) | IC50 [nM]
O=C1CCCN1CCCNCc1ccc(-c2cccc(-c3nc4ccccc4[nH]3)c2)cc1 | 1020
CC(C)c1ccc(NC(=O)c2cccc(CN3CCCN(CC4CCCCC4)CC3)c2)cc1 | 710
CN(C)CCN(C)Cc1ccc(-c2cccc(NC(=O)c3cccc(C#N)c3)c2)cc1 | 1180
CCNc1cc(C(=O)N[C@@H](Cc2ccccc2)[C@H](O)CNCC(C)C)cc(N2CCCC2=O)c1 | 490
c1ccc(Oc2ccc(Nc3ccnc4cc(-c5ccc(CNCCN6CCOCC6)o5)ccc34)cc2)nc1 | 1440
O=C(NCCCCN1CCC(c2ccc(-c3ccco3)cc2)CC1)c1ccc(NC(=O)c2ccc(Cl)cc2)cc1 | 540
C[C@H](O)[C@@](C)(CO)NCc1ccc2c3c(cccc13)-c1ccccc1-2 | 820
CCN(CCO)CCCC(C)Nc1ccnc2cc(Cl)ccc12 (stereo unspecified) | 760
Cc1cc(NC(=O)c2cccs2)ccc1OC1CCN(Cc2ccc(F)cc2)C1 (stereo unspecified) | 670
Cc1cnc(CN(Cc2ccc(-c3ccc(CNCCc4ccc(S(C)(=O)=O)cc4)cn3)cc2)C(=O)c2ccc([N+](=O)[O-])c(C)c2)cn1 | 920
CC(=O)Nc1nc(C(=O)Nc2cccc(-c3ccc4c(cnn4CC4CC4)c3)c2)cs1 | 740
NC1CCN(Cc2ccc(-c3cccc(-c4nc5ccccc5[nH]4)c3)cc2)C1 (stereo unspecified) | 850
Fc1ccc2nc(-c3cccc(-c4cccc(CNCc5ccccc5)c4)c3)[nH]c2c1 | 280
CN1CCN(CCCN(Cc2cccc(-c3cccc(CNCCc4ccccc4)c3)c2)C(=O)Nc2ccccc2)CC1 | 580
Cc1[nH]c(C)c(-c2ccc(OCc3ccc(F)cc3)cc2)c(=O)c1Br | 80
c1ccc2ncc(CNCCCCCCCCNCc3cnc4ccccc4c3)cc2c1 | 850
Cc1nn(CC(C)C)c2sc(C(=O)N3CCN(S(=O)(=O)c4ccc(C#N)cc4)CC3)cc12 | 740
Cn1cncc1C(=O)Nc1cccc(-c2cccc(-c3nc4ccc(F)cc4[nH]3)c2)c1 | 490
CCCC(=O)NC(c1ccc(C)cc1)c1ccc2cccnc2c1O (stereo unspecified) | 960
O=S(=O)(NCCN1CCCC1)c1cccc(-c2cccc(CNCc3ccc(F)cc3)c2)c1 | 850
COc1cc(Br)ccc1N1CCN(CCCCNC(=O)c2ccc(NC(=O)c3ccc(Cl)cc3)cc2)CC1 | 760
CCOc1ccccc1C(=O)Nc1cccc(-c2nc3ncccn3c2C)c1 | 850
CCN(CC)CCN1C(=O)c2oc3ccc(Cl)cc3c(=O)c2C1c1ccc(SC)cc1 (stereo unspecified) | 1060
Cc1cccc2[nH]c(-c3ccc(-c4ccc(CNCc5ccc(S(C)(=O)=O)cc5)cc4)cc3)nc12 | 750

Structure (SMILES) | IC50 [nM]
CCCCN1CCCN(Cc2cccc(NC(=O)c3ccc(-c4ccccc4)cc3)c2)CC1 | 1030
COc1ccc2c(CCNc3nc(SC)ncc3C(=O)NCCc3ccc(F)cc3)c[nH]c2c1 | 760
COc1ccc(-n2ccnc2SCC(=O)Nc2cc(Cl)ccc2OC)c(OC)c1 | 730
O=C(/C=C/c1ccc(Cl)c(Cl)c1)N1CCC(CCN2CCC(c3c[nH]c4ccncc34)CC2)CC1 | 1140
Cn1nc(-c2cccc(CNC3CCc4ccccc43)c2)c2cnc(NCCCN3CCCC3)nc21 (stereo unspecified) | 880
COc1ccc2nc3cc(Cl)ccc3c(Nc3ccc(Oc4ccc(Nc5c6ccc(Cl)cc6nc6ccc(OC)cc56)cc4)cc3)c2c1 | 860
CCNc1cc(C(=O)N[C@@H](Cc2ccccc2)[C@H](O)CNC2CCCC2)cc(N2CCCC2=O)c1 | 80
O=C(NC1CCN(Cc2ccccc2)CC1)c1cccc(-c2cc3cc(Cl)c(Cl)cc3[nH]2)c1 | 720
C[C@H]1CN(Cc2cccc(-c3cc(CNC(=O)c4cccc(CC5CCN(C)CC5)c4)ccc3F)c2)CCN1C | 1090
COCCn1ccc2c3c(N)nc(N)nc3ccc21 | 210
Cc1ccn2c(C(=O)N3CCN(c4cccc5c4nc(-c4ccoc4)n5Cc4ccccn4)CC3)c(C)nc2c1 | 200
Cc1cc(Cl)c(S(=O)(=O)N(C)c2ccccc2)cc1OCC(=O)NC1CCCCC1 | 300
Cc1noc(C)c1-c1cccc(CNCc2cccc(-c3ccc(-c4nc5c(C)cccc5[nH]4)s3)c2)c1 | 210
CC(=O)Nc1cccc(C(=O)Nc2ccc(-c3ccc(-c4nc5c(C)cccc5[nH]4)s3)cc2)c1 | 1740
O=C(NCCN1CCCC1)c1cccc(-c2ccc(-c3nc4ccc(F)cc4[nH]3)s2)c1 | 1530
Cc1ccccc1C1CCN(c2ncc(C(=O)Nc3ccccc3)cc2Cl)CC1 | 1010
O=C(/C=C/c1ccc(Cl)c(Cl)c1)NC1CCN(Cc2ccc(O)cc2)C1 (stereo unspecified) | 950
CC1CCCN(S(=O)(=O)c2cc(Br)cc3c2N(C(=O)C2CC2)CC3)C1 (stereo unspecified) | 720
C=CCn1c(Sc2ccc(C#N)c([N+](=O)[O-])c2)nnc1-c1cc(OC)cc(OC)c1 | 440
O=C(N[C@H]1CCN(Cc2ccc(OCCCN3CCCCC3)cc2)C1)c1ccc(Cl)c(Cl)c1 | 780
N#CN1CC[C@H](CS(=O)(=O)c2cccc(Br)c2)C1 | 870
COc1ccc(-c2ccc(NC(=O)c3ccc(Cl)cc3)cc2)cc1CN(C)CCO | 810
Cn1nccc1C(=O)NCCNCc1ccc(-c2cccc(-c3nc4ccc(C(F)(F)F)cc4[nH]3)c2)cc1 | 120
CCN(CC)CCN(Cc1ccc(-c2ccc(Br)cc2)cc1)C(=O)Cn1c(CCc2cccc(F)c2F)nc(=O)c2ccccc21 | 790
